Source: patent publication US4153710A, “N-(4-[2-(pyrazole-1-carbonamide)-ethyl]-benzenesulphonyl)-urea” (Starogardzkie Zaklady Farmaceutyczne POLFA, priority 1976, dated 1979)

Legend:
glucose concentration = assay: Blood glucose in normal men volunteers (Table 7); type: in vivo; settings: for decrease in blood-glucose vs starting value: 5 mg oral; for Glucose concentration: oral 5 mg SPC-5002 or 12.5 mg Glibornuride
Experimental: (§1) The hypoglycemic activity of N-{4-[2-(pyrazole-1-carbonamide)-ethyl]-benzenesulphonyl}-ureas prepared according to the present invention can be noticed after their oral administration to mice, rats, rabbits and people and when determining the glucose concentration in blood with a known enzymatic method using glucose oxidase.
(§2) When administered to normal men volunteers it has been stated that 60 minutes after the administration of SPC-5002 a 5 mg oral dose causes the decrease in blood-glucose of 28% in comparision to the starting value and after 90 minutes it reaches 33% (Table 7). Whereas Glibornuride employed in a dose 2.5 times as big on peak of its activity decreases the glucose blood level only of 19%. It can clearly be noticed that there is a positive correlation between the glycemic and insulin level curves. Both examined preparations cause a significant decrease in free fatty acids in blood. […] 60 and 90 minutes after the SPC-5002 administration, the blood-glycose level is decreased to 33 and 52% while in the Placebo group it is maintained in the range of 13-14%.
(§3) The comparison of glucose, insulin and free fatty acids concentration in
(§4) normal men after the oral administration of 5 mg of SPC-5002 or 12.5 mg

[1] = system: blood-glucose concentration; assay: ED30 oral hypoglycemic dose in mice (Table 2); type: in vivo; settings: Mus musculus, oral, read-out: Effective oral doses ED30
Experimental: as §1
(Table 2). […] It has been observed that even 9 hours after the administration of one dose of SPC-5002 to rats, the glucose level in blood was decreased, whereas in the case of Glibornuride the glucose level comes back to its normal value in 6 hours from the time of the administration.

[2] = system: free fatty acids concentration; assay: Free fatty acids in normal men volunteers (Table 7); type: in vivo; settings: oral 5 mg SPC-5002 or 12.5 mg Glibornuride
Experimental: as §2, §3, §4

[3] = system: oxidizing phosphorylation in mitochondria of a rat's liver; assay: Oxidizing phosphorylation of rat liver mitochondria; type: biochemical
Experimental: 2-oxoglutaran 2 mM, ADP 1 mM, mitochondria | protein 4 mg/m. […] The | oxidizing phosphorylation speed was determined by means of the measuremen | of hydrogen ion consumption. The calcium transmission to mitochondria was […]

Cc1ccn(C(=O)NCCc2ccc(S(=O)(=O)NC(=O)NC3CCCCC3)cc2)n1 [SPC-5002, N-{4-[2-(3-methylpyrazole-1-carbonamide)-ethyl]-benzenesulphonyl}-N'-cyclohexylourea]
decrease in blood-glucose vs starting value (glucose concentration; 60 minutes): 28% | decrease in blood-glucose vs starting value (glucose concentration; 90 minutes): 33% | Glucose concentration (glucose concentration; 0 mins (empty stomach)): 96.8 mg/100 cc | Glucose concentration (glucose concentration; 30 mins): 88.5 mg/100 cc | Glucose concentration (glucose concentration; 60 mins): 69.0 mg/100 cc | Glucose concentration (glucose concentration; 90 mins): 65.5 mg/100 cc | Glucose concentration (glucose concentration; 120 mins): 76.5 mg/100 cc | Glucose concentration (glucose concentration; 180 mins): 79.7 mg/100 cc | ED30 [1]: 1.9 mg/kg | Free fatty acids concentration ([2]; 0 mins (empty stomach)): 0.63 mEq/1000 cc | Free fatty acids concentration ([2]; 30 mins): 0.48 mEq/1000 cc | Free fatty acids concentration ([2]; 60 mins): 0.46 mEq/1000 cc | Free fatty acids concentration ([2]; 90 mins): 0.48 mEq/1000 cc | Free fatty acids concentration ([2]; 120 mins): 0.51 mEq/1000 cc | Free fatty acids concentration ([2]; 180 mins): 0.52 mEq/1000 cc | effect on oxidizing phosphorylation ([3]; 0.05 nM): no effect | % of inhibition, oxidizing phosphorylation ([3]; concentration 0.05 n M): 0% | % of inhibition, oxidizing phosphorylation ([3]; concentration 0.1 n M): 15% | % of inhibition, oxidizing phosphorylation ([3]; concentration 0.3 n M): 21% | % of inhibition, oxidizing phosphorylation ([3]; concentration 0.5 n M): 38% | % of inhibition, oxidizing phosphorylation ([3]; concentration 0.7 n M): 63% | % of inhibition, oxidizing phosphorylation ([3]; concentration 1.0 n M): 74% | Ki ([3]; rat liver mitochondria): 600 µM
